Measurements published in paper PMC6934184, “Selective DNA-PKcs inhibition extends the therapeutic index of localized radiotherapy and chemotherapy” (The Journal of Clinical Investigation, 2019).

Target: T1, MYO3B (MYO3 beta) (Homo sapiens, UniProt Q8WXR4)
T1 construct: purchased Thermo Fisher Scientific (Life Technologies) SelectScreen
Assay: SelectScreen LanthaScreen
Assay type: binding
Conditions: read-out: % displacement
Outline: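 SelectScreen broad panel; activity (Z'LYTE, Adapta) plus binding formats. ATP: Km app for CSF1R Z'LYTE; 10 for CAMK1 Adapta. Readout = % per kinase.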

T1 sequence (Q8WXR4 whole entry): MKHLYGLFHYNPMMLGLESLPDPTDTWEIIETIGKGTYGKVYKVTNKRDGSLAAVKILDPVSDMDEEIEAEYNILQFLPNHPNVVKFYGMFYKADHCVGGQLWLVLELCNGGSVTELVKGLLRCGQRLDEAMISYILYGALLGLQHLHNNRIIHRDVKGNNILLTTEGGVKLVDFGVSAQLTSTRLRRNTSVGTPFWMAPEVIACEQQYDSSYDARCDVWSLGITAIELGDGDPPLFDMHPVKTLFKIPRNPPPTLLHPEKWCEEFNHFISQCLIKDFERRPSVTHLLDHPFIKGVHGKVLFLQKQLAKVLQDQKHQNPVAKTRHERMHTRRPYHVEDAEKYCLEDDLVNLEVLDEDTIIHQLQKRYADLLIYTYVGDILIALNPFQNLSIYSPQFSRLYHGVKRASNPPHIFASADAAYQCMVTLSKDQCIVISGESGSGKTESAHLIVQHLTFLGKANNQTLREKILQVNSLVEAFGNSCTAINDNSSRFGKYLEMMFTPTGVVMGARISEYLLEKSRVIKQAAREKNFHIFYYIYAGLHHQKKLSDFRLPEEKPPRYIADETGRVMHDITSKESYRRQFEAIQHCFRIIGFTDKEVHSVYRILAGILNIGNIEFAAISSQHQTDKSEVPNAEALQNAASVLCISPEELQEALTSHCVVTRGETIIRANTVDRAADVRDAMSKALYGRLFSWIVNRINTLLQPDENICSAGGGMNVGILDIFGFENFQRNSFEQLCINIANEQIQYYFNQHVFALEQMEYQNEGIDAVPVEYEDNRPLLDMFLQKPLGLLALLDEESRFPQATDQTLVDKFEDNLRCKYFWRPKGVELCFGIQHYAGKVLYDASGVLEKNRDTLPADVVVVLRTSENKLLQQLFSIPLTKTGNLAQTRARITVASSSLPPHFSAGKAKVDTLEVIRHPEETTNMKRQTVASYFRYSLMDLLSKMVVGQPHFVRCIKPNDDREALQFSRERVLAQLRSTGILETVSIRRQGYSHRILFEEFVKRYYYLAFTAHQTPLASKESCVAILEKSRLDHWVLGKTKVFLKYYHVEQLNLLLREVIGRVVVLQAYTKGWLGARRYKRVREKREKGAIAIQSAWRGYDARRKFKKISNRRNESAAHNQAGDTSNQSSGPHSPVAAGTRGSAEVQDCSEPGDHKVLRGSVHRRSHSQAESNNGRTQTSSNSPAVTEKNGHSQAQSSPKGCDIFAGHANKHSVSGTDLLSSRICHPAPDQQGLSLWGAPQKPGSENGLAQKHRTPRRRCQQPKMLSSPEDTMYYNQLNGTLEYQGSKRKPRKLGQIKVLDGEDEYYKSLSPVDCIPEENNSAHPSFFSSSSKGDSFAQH

SMILES: CN(C(=O)CN1CCOCC1)c1ccc2sc3c(-c4cccc5c(=O)cc(N6CC7CCC(C6)O7)oc45)cccc3c2c1 [NU5455]
- inhibition at 1 µM: 2.3%
